The conditions of data set [1]: human, 40 min, 2 uM.
The target of a further data set is T1, CYP1A2 (Homo sapiens, UniProt P05177).
T1 sequence (P05177 1-516): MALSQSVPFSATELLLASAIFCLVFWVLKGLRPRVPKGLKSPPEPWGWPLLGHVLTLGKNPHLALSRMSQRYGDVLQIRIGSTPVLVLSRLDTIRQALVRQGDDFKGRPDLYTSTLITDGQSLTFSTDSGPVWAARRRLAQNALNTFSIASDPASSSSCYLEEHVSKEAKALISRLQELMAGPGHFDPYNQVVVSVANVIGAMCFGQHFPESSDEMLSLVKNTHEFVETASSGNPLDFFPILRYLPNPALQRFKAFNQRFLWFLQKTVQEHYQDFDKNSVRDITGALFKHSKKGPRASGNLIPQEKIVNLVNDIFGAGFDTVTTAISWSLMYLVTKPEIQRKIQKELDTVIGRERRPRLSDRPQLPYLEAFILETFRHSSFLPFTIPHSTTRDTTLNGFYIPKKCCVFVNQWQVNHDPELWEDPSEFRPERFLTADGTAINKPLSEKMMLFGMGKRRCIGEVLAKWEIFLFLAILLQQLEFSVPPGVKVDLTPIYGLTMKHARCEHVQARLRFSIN
As to the kind of experiment: Cytochrome P450 inhibition with fluorogenic substrate, CYP1A2. Particulars: CYP1A2, 10 µM, 10 minute preincubation, 25 minute reaction.

A short description of another data set: physchem. The settings on record: pH 7.4.
A further data set has as its target CYP3A4 (Homo sapiens, UniProt P08684). Briefly: in vitro. Particulars: probe fluorogenic CYP substrate (not named).
Data set [2] in a line: Metabolic stability in mouse liver microsomes. Particulars: 2 uM, over 40 minutes, 37°C.
In a further data set the test system is HeLa cell line. As to the kind of experiment: Antiproliferative MTT assay, HeLa cell line. Format: cell-based. Particulars: Homo sapiens. For orientation: Tetrazolium dyes change colour on reduction, which living cells bring about.
For the next data set, the target named is CYP2C19 (Homo sapiens, UniProt P33261). As to the kind of experiment: Cytochrome P450 inhibition with fluorogenic substrate, CYP2C19. The settings on record: CYP2C19, 10 µM, 10 minute preincubation, 60 min reaction.
For the next data set, the target named is CYP2D6 (Homo sapiens, UniProt P10635). Briefly: in vitro. The settings on record: probe fluorogenic CYP substrate (not named).
The target of a further data set is CYP2C9 (Homo sapiens, UniProt P11712). As to the kind of experiment: in vitro. The settings on record: probe fluorogenic CYP substrate (not named).
The next data set relates to HL60 cell line. As to the kind of experiment: Antiproliferative MTT assay, HL60 cell line. Format: cell-based. The settings on record: Homo sapiens, HL-60, 48 h incubation.
The next data set relates to HeLa cells. Briefly: Cell cycle analysis by flow cytometry, propidium iodide staining. Format: cell-based, human. Particulars: 24 h incubation, propidium iodide DNA staining, phosphate. For orientation: Flow cytometry measures light scatter and fluorescence of single cells or particles in a stream.
For a further data set, the system named is microtubule network. Briefly: Microtubule perturbation in cellulo, immunofluorescence staining of α-tubulin. Format: cell-based, human. The settings on record: HeLa cells, 24 h incubation, A-2 in PBS, A-3 with 0.25% DMSO cosolvent.
A further data set deals with Balb/c mice. Briefly: Safe dosing parameters in vivo in mice.
The subject of data set [3] is tubulin polymerisation dynamics. Briefly: Inhibition of tubulin polymerisation dynamics in cellulo, confocal video microscopy of EB3-YFP comets. Format: cell-based, human. The settings on record: 0.24 µM, live HeLa cells expressing EB3-YFP. An excerpt:
In videos this marker manifests as bright well-defined moving "comets", and in still images as bright elongated streaks, when MTs are polymerising normally as in the control image (frame "ctrl"). […] "DMSO ctrl" denotes the cosolvent control for the A-3 images (i.e. 0.25% DMSO but no compound) while "PBS ctrl" denotes the control for the A-2 images (no compound or cosolvent applied); these controls show the expected structure of the microtubule network when no inhibition is applied.

Each structure is given as a SMILES string. Entries after “also recorded” stand apart in the source; their conditions may differ. Read-outs that look alike come from different tables or passages of the source. Some results are limits rather than exact numbers.

CYP2D6, sequence (P10635 whole entry): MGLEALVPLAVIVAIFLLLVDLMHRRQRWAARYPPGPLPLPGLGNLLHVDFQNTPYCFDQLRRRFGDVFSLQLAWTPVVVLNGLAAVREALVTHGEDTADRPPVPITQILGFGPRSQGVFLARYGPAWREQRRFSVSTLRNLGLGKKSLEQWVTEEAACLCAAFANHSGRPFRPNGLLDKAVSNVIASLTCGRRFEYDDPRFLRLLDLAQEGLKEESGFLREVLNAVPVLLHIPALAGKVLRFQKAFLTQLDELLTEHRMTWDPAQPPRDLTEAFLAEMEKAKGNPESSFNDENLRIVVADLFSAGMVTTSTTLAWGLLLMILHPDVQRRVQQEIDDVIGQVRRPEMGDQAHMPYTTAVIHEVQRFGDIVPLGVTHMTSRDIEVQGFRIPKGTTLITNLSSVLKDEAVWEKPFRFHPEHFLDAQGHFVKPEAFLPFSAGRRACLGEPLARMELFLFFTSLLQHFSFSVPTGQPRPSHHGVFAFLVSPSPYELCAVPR
CYP2C9, sequence (P11712 whole entry): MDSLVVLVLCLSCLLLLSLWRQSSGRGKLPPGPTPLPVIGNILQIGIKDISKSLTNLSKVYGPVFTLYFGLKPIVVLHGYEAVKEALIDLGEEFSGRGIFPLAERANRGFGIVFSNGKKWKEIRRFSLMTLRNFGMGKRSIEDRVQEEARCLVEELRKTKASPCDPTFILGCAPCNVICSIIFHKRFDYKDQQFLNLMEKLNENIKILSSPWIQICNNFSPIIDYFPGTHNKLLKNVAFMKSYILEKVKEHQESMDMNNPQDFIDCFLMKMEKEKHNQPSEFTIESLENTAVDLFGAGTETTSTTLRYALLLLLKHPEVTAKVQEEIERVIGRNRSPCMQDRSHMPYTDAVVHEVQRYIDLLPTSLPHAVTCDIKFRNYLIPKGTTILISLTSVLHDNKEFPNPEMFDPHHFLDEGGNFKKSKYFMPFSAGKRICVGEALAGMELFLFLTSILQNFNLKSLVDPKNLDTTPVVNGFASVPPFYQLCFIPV
CYP3A4, sequence (P08684 whole entry): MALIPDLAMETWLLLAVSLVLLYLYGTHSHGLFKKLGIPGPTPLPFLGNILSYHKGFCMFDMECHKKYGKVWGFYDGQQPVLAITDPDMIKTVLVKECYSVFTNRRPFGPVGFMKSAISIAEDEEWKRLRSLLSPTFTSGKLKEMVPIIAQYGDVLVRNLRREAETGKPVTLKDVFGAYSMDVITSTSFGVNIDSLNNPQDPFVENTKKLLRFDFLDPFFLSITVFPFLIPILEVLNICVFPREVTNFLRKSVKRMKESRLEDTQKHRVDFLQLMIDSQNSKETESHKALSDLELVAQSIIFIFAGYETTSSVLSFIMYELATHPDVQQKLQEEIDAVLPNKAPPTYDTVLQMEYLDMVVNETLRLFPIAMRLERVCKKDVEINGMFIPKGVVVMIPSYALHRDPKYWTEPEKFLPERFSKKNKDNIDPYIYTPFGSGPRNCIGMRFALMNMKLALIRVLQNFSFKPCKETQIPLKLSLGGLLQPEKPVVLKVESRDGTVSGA
CYP2C19, sequence (P33261 whole entry): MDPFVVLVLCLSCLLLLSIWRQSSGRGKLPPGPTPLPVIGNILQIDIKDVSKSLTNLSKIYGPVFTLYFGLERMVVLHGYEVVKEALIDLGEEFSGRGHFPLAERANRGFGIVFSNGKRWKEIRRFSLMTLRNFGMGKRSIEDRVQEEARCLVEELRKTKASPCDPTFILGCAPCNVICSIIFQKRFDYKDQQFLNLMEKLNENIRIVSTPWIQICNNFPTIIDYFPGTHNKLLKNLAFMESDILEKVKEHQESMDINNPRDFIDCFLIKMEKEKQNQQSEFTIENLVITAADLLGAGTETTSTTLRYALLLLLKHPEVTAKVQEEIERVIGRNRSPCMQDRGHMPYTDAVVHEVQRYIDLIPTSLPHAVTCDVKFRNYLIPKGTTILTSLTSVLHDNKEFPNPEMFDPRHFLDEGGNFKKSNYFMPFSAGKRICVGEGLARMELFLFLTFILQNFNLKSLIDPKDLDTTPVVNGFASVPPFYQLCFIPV

For `COc1cc2c(-c3cc(OC)c(OC)c(OC)c3)nccc2cc1O` [A-1, 7-methoxy-1-(3,4,5-trimethoxyphenyl)isoquinolin-6-ol], the degradation in data set [1] is 31%; in data set [2], 33%. Moreover, at CYP1A2, the inhibition result was “zero”. In “physchem”, this compound showed a log distribution coefficient (logD) of 2.18. For the same compound, the inhibition at 25 min, 10 µM against CYP3A4, against CYP2D6 and on CYP2C9 was 13 to 19% in each case. Also, the IC50 with HeLa cell line (HeLa cell line, MTT assay, 48 h incubation, read-out: IC50) amounted to 0.24 µM; in the data set on HL60 cell line, 0.1 µM. Further, the “apparent enhancement of activity” value at CYP2C19 amounted to 50%.

Regarding `COc1cc2c(-c3cc(OC)c(OC)c(OC)c3)nccc2cc1OP(=O)([O-])[O-].[Na+].[Na+]` [A-2, disodium 7-methoxy-1-(3,4,5-trimethoxyphenyl)isoquinolin-6-yl phosphate], in the data set on HeLa cells, the cell cycle effect entry was “extensive cell cycle arrest leading to accumulation of cells in the G2/M phase; also recorded: dose-dependently causes accumulation of cells at the G2/M phase”. The compound also yielded an IC50 with HeLa cell line (HeLa, 48 h) of 0.13 µM. In the data set on microtubule network (phosphate), the microtubule network perturbation result was “pronounced disorganisation and destruction of the microtubule network”. For the same compound, the tolerability result in the data set with Balb/c mice (repeated dosage 25 mg/kg i.p., 3 administrations at 48-hour intervals, Balb/c mice) is reported as “tolerated compound administration”; with Balb/c mice (repeated dosage 25 mg/kg i.v., 3 administrations at 48-hour intervals, Balb/c mice) it was “tolerated compound administration”; in the data set on Balb/c mice (single dosage 31.5 mg/kg i.p., male and female Balb/c mice), “tolerated by all mice tested”; in the data set on Balb/c mice (single dosage 50 mg/kg i.v., male and female Balb/c mice), “tolerated by all mice tested”. In addition, in [3], the “time until the comets stopped and vanished” value was not above 0.5 min.

With `COc1ccc2ccnc(-c3cc(OC)c(OC)c(OC)c3)c2c1` [A-3, 7-methoxy-1-(3,4,5-trimethoxyphenyl)isoquinoline], the microtubule network perturbation entry in the data set with microtubule network was “pronounced disorganisation and destruction of the microtubule network”. Also, in the data set with HL60 cell line, the IC50 worked out at 0.28 µM.

Consider `Cn1c(=O)c2c(ncn2C)n(C)c1=O` [caffeine, reference compound], for which the degradation in data set [1] is reported as less than 10%.

For orientation: inhibition means the change of the read-out against control, counted positive when it falls. One may read the logD as the decadic logarithm of the distribution of all forms, ionised or not, between an organic phase and buffer at a given pH. What is called IC50 is the midpoint of a concentration-inhibition curve.

The values above are taken from patent EP3653608A1, “ISOQUINOLINE BIARYL COMPOUNDS, A PHARMACEUTICAL COMPOSITION COMPRISING THE SAME, AND USES THEREOF” (Ludwig-Maximilians-Universität München, priority 2018, dated 2020).
